Activity calls are given as the source filed them. The calls are words filed in the database; no cut-off is given here.
Key:
SARS-CoV-2 [1] = experiment: Antiviral activity against SARS-CoV-2 Gamma (P.1) variant infected in human A549 cells harbouring ACE2 pretreated with compound for 1 hr followed by viral infection for 1 hrs and measured after 48 hrs by RT-qPCR analysis; assay type: functional, organism-based; conditions: Severe acute respiratory syndrome coronavirus 2, time 50.0 hrs
SARS-CoV-2 [2] = experiment: Antiviral activity against SARS-CoV-2 Delta (B.1.617.2) variant infected in human A549 cells harbouring ACE2 pretreated with compound for 1 hr followed by viral infection for 1 hrs and measured after 48 hrs by RT-qPCR analysis; assay type: functional, organism-based; conditions: Severe acute respiratory syndrome coronavirus 2, time 50.0 hrs

Compound: Cc1ccc(NC2CNC2)cc1C(=O)N[C@H](C)c1cccc(-c2ccc(CNC3CCCC3)s2)c1
- Activity (SARS-CoV-2 [1]): Active
- Activity (SARS-CoV-2 [2]): Active

— ChEMBL document CHEMBL5576130, “Non-Covalent Inhibitors of SARS-CoV-2 Papain-Like Protease (PLpro): In Vitro and In Vivo Antiviral Activity” (J Med Chem, 2024)
